Experimental data as given in paper PMC12036875, “Mitochondria-targeting natural product rhein conjugated with dichloroacetate as the dual inhibitor of glycolysis and oxidative phosphorylation to off energize cancer cells and induce ROS storm” (Theranostics, 2025).

What was measured:
[1] = test system: phospho-Ser^293 PDHA1 protein in 4T1 cells; experiment: Western blot of phospho-Ser293 PDHA1; assay type: cell-based, Mouse; settings: 6.25 μM, 24 h, vs control
Procedure: Then, the phospho-Ser^293 PDHA1 protein level in 4T1 cells, which is regulated by PDK1, was further analyzed with western blot (Figure 2C). […] The conjugate successfully altered glycolysis of 4T1 cells via PDK-PDH axis.
(§1) 4T1 cells were seeded in 6-well plates at a density of 20 × 10^4 cells per well and cultured for 24 h. Then the cells were treated with rhein, DCA, R + D and Rhein-DCA conjugate, each at a concentration of 6.25 μM for 24 h. Cells were washed twice with PBS and lysed by RIPA total protein extraction solution containing multiple protease inhibitors for 30 min while being maintained on ice. The lysate was centrifuged at 9391 G for 10 min at 4 °C to obtain the total protein solution. The concentrations of total protein were determined with BCA Protein Assay Kit. The protein was further denatured with 5 × protein loading buffer at 100 °C for 15 min. Sodium dodecyl sulfate polyacrylamide gel electrophoresis was conducted to separate the protein and transferred it to PVDF membranes. The PVDF membranes were blocked with 5% skim milk for 30 min at room temperature and incubated with indicated primary antibodies: Anti-Cytochrome C Rabbit pAb (1:1000); Anti-β-actin Rabbit pAb (1:1000); or Anti-PDHA1 Rabbit mAb (phosphoS^293) (1:1000) overnight at 4 °C. The membranes were incubated with HRP conjugated Goat Anti-Rabbit IgG (H+L) (1:5000), respectively, for 30 min at room temperature and then analyzed by chemiluminescence (Clinx,6100).

[2] = test system: Cyt C protein in 4T1 cells; experiment: Western blot of Cyt C; assay type: cell-based, Mouse; settings: 6.25 μM, 24 h
Procedure: The opening of mPTP in mitochondria often leads to the release of pro-apoptotic factor such as cytochrome C (Cyt C), thereby inducing apoptosis. Western blot was applied to measure the level of Cyt C in 4T1 cells after treatment with different drugs. The ratio of the integrated density value of target Cyt C protein to the internal parameter β-actin protein was also analyzed (Figure 4B). […] The released Cyt C in the rhein and R + D groups was 4.4- and 5.0-fold than that of the control group, respectively, clarifying that rhein component could boost the release of Cyt C in 4T1 cells.
as §1

[3] = test system: 4T1 cells; experiment: Cell apoptosis assay (Annexin V-Alexa Fluor 647/PI flow cytometry); assay type: cell-based, Mouse; settings: 6.25 μM, 24 h
Procedure: Correspondingly, the fall of intracellular ATP amount and the release of Cyt C directly drove cells into apoptosis. Flow cytometry apoptosis assay was conducted on the 4T1 cells after culture with different drugs at 6.25 μM for 24 h. The treated cells were stained with Annexin V-Alexa Flour 647 and PI. […] Since the antitumor effect could only be achieved when DCA was used in high dose, it is in agreement with reported literature. Similar to rhein group, the apoptosis rate in R + D group increased to approximately 12%.
Annexin V/PI staining was used to analyze the apoptosis of cancer cells. 4T1 cells were seeded into 6-well plates at a density of 10 × 10^4 cells per well. The cells were permitted to resume exponential growth for 24 h and treated with various drugs. After another 24 h incubation, the supernatant was collected in 1.5 mL tubes. The cells were treated with 100 μL of 0.25% Trypsin-EDTA for 2 min, subsequently 300 μL fresh medium were added which was combined with the corresponding supernatant. The cells were obtained following centrifugation at 434 G for 5 min and washed twice with PBS, and then resuspended in 500 μL of binding buffer (1 ×). The cells were stained with Annexin V/Alexa Fluor 647 and PI (20 μg/mL) for 5 min at room temperature in the dark. The fluorescence signal was immediately detected by flow cytometry and the data were analyzed by FlowJo software.

[4] = test system: 4T1 tumor tissue; experiment: IHC of pPDHA1-Ser293 and IF of HMGB1 in tumor slices; assay type: in vivo, Balb/c mice; settings: 20 mg/kg oral, 24 days; for pPDHA1-Ser293 protein level in tumor tissue (IHC): vs vehicle
Description: The TAMs are the prominent components in the TEM and play a critical role in tumoral immunosuppression. Repolarization of protumor M2 phenotype into antitumor M1 phenotype is promising for malignant tumors. On the one hand, as a key metabolite fueling M2 polarization, lactate is very important in modulating the polarization state of macrophages within the tumor microenvironment. To verify that Rhein-DCA conjugate reprogrammed the metabolism of cells on solid tumors, we analyzed the expression of pPDHA1-Ser^293 protein in tumor tissues with immunohistochemical staining (IHC) (Figure 7A). […] The end product lactate of glycolysis decreased 20%, consistent with DCA's ability to reverse the Warburg effect. […] On the other hand, the ICD behavior of cancer cells also can activate TAMs into M1 polarization. Then, the release of HMGB1 was evaluated to assess the ICD effect in vivo with immunofluorescence staining (IF) (Figure 7C).
After 24 days, the mice were euthanized, and then tumors were excised to photographing and weighting. The tumors in each group were performed with TUNEL (green fluorescence) and H&E assay. In addition, immunohistochemical staining was conducted on the tumor tissue to determine the pPDHA1-Ser^293 protein level. Besides, immunofluorescence staining was used to detect the expression of HMGB1 protein in the tumor.

Compound	phospho-Ser293 PDHA1 protein level (western blot) [1]	released Cyt C, in words [2]	apoptosis in comparison with control group, in words [3]	HMGB1 localisation in tumor slices (IF) [4]	pPDHA1-Ser293 protein level in tumor tissue (IHC) [4]	released Cyt C relative to control group (Cyt C/β-actin) [2] [fold]	apoptosis rate [3] [%]
O=C(O)C(Cl)Cl [DCA, Dichloroacetate]	slightly downregulation	could almost be disregarded	no obvious changes	almost all of HMGB1 overlapped with nucleus	obvious down-expression	–	–
O=C(O)c1cc(O)c2c(c1)C(=O)c1cccc(O)c1C2=O [Rhein, 4,5-dihydroxyanthraquinone-2-carboxylic acid]	no obvious down-regulated trend	–	–	almost all of HMGB1 overlapped with nucleus	did not significantly alter	4.4	–
O=C(OCCOC(=O)C(Cl)Cl)c1cc(O)c2c(c1)C(=O)c1cccc(O)c1C2=O [Rhein-DCA]	lowest expression	more Cyt C than rhein and R + D groups	–	mostly appeared outside the nucleus with weak intensity	down-expression	–	37.4
